Reference: patent US6015560A, “Antibody recognizing endothelial cell ligand for leukocyte CR3” (priority 1995, dated 2000)

Experiments:
leukocytes in CSF = experiment: Leukocyte and protein influx into CSF of rabbits challenged with pneumococci; type: in vivo, rabbit; details: intravenous, meningitis model
Excerpt: This inhibitory activity implies that antibodies to FHA which bind to any of the three Factor X regions would disturb leukocyte recruitment. This is to be distinguished from anti-FHA antibodies that bind to endothelia by recognizing an integrin receptor which is an endothelial cell component (see below). […] This is shown in FIG. 6 where various doses of antibody were given to rabbits and the number of leukocytes recruited into the cerebrospinal fluid in response to pneumonoccal meningitis was determined.
Rabbits were inoculated intracisternally with 10^8 pneumococci and the generation of an inflammatory response in cerebrospinal fluid (CSF) was followed over time by measuring the appearance of leukocytes and protein in CSF. Animals were treated with the antibodies intravenously (2 mg/kg of culture supernatant fluid) at the same time as the intracisternal challenge was given.

[1] = tested on: human umbilical vein endothelial cells; experiment: Adherence of neutrophils to cultured (TNF-stimulated) endothelial cells; type: cell-based
Experimental: Human umbilical vein endothelial cells (HUVEC, first passage, Clonetics, San Diego, Calif.) were subcultured at confluence into Terasaki tissue culture wells. After 24 hours, confluent monolayers were used for adherence assays. Monolayers were stimulated with 10 ng/ml TNF alpha (Boehringer Mannheim, Indianapolis, Ind.) at 37° C. for four hours. 30 μl of human neutrophils (10^6 /ml) were labeled with fluorescein by the method of Lo et al. (1991), J. Exp. Med. 173 1493-1500, and preincubated for 15 minutes at 37° C. with 20 μl of peptides (0.5 mM in HAP) or HAP (phosphate buffered saline containing 0.5 mg/ml human serum albumin, 3 mM glucose, and 0.3 U/ml aprotinin) as a control buffer. For some experiments, endothelial cells were pretreated from 10 minutes with Factor X or antibodies against Factor X receptor (EPR-1; Altieri et al. (1990), J. Immunol. 145, 246-253) 12H1 and 9D4 (obtained from Dr. D. Altieri, Scripps Research Institute, Lajolla, Calif.) and then washed. Neutrophils were allowed to adhere to the monolayer for 15 mins. at 37° C. and unbound cells were removed by submersion of the plate in PBS buffer. The number of adherent neutrophils was counted in a 40× microscope field and expressed as a percentage of adherence in control wells with neutrophils treated with HAP buffer alone. The mAb IB4 against CD18 (50 μg/ml; Merck Inc., Rahway, N.J.) served as a positive control.
The procedures for determining the neutrophil adherence to cultured endothelial cells and the transendothelial migration of neutrophils were identical with those of Example 9. Control values were the same as those shown in Example 9.

blood brain barrier = experiment: Rabbit meningitis model: CSF protein and lactate (blood brain barrier permeability); type: in vivo
Experimental: The rabbit model was performed according to an established protocol. Specific pathogen free, New Zealand white rabbits (2 kg; Hare Marland, Nutley, N.J.) were anesthetized with valium (2.5 mg/kg, subcutaneously, Hoffman-LaRoche, Nutley, N.J.), ketamine (35 mg/kg, intramuscularly, Aveco, Fort Dodge, Iowa) and xylazine (5 mg/kg, intramuscularly, Miles Laboratories, Shawnee, Kans.) and a helmet of dental acrylic was affixed to the calvarium. Twenty four hours later, the rabbits were anesthetized with ethyl carbamate (1.75 g/kg; Aldrich Chemical Co., Milwaukee, Wis.) and pentobarbital (15 mg/kg; Abbott Laboratories, Abbott Park, Ill.) and placed in a stereotaxic frame. A spinal needle was introduced into the cisterna magna and 300 μl of CSF was withdrawn. The animals were challenged intracisternally with 10^8 heat killed, unencapsulated pneumococcus strain R6 introduced in 200 μl of saline (time 0). One hour later, animals were treated with peptides dissolved in 1 ml of saline by intravenous injection into the right marginal ear vein. The concentration of FHA was 0.1 μM and that of the FHA Ia, Factor X II, and scrambled FHA II peptides was 10 μM. For the acetyl-FHA II, acetyl/amide-FHA II, dimer of FHA II and trimer of FHA II peptides, the concentration was 10^-3 μM. The concentration of FHA II is given in the results section. Samples of CSF were withdrawn at hourly intervals after pneumococcal inoculation and leukocyte density was measured using a cell counter (Coulter Electronics Inc., Hialeah, Fla.). CSF samples were centrifuged at 10,000×g for 5 minutes and the supernatant was stored at -70° C. until assayed for protein concentration using the bicinchoninic acid method (BCA Kit, Pierce Chemical Co., Rockford, Ill.) and for lactate concentration (Lactate Detection Kit, Sigma, St. Louis, Mo.). Statistically significant differences between treatments were determined by a one way analysis of variance test.
Loss of barrier function of the cerebral capillary endothelium during inflammation is reflected by an influx of serum proteins into the CSF. […] To examine if the peptides were able to ameliorate these measures of cerebral injury, CSF protein and lactate concentrations were measured hourly in peptide-treated and control animals (Table 10).
Leukocyte migration into the CSF in bacterial meningitis is associated with loss of barrier function of the cerebral capillary endothelium, resulting in influx of serum proteins into the CSF. To determine whether FHA peptides were able to prevent this leukocyte-dependent injury, protein concentrations in the CSF were measured throughout the course of inflammation in peptide-treated and control animals.

[2] = 6 hours, peptides 10 μM, FHA 0.1 μM

Substance: filamentous hemagglutinin [native FHA]
- leukocyte influx into / inflammation of CSF (in words) (leukocytes in CSF): decreases inflammation
- reduction of neutrophil binding to HUVEC ([1]; 25 μg/ml=0.3 μM): 51±8%
- inhibition of adherence of neutrophils to cultured endothelial cells ([1]; 50 ug/ml, 0.2 uM): 51±7%
- maximal inhibition of neutrophil attachment ([1]; concentration dependence): ~ 50%
- protein influx into CSF and lactate generation (in words) (blood brain barrier; 10 μM peptides, 0.1 μM FHA): significantly protective for protein influx and lactate generation
- Total protein in CSF (blood brain barrier; 6 hours): 1.70 ± 0.33 mg/mL
- Lactate in CSF (blood brain barrier; [2]): 25.0 ± 5.3 mg/100 ml
- Protein in CSF (blood brain barrier; [2]): 1.3 ± 0.3 mg/ml CSF
- Total protein in CSF (blood brain barrier; 7 hours): 1.86 ± 0.76 mg/mL
